The text below walks through data of the SangsterLogP compilation.

This series can be described thus: method code SF-AS, from DOI: 10.1016/0223-5234(92)90053-4.

As to `CCN(CC)CCCC(=O)c1ccccc1`, the lipophilicity (logP) (usually the decadic logarithm of the partition coefficient of the neutral form, usually between octanol and water) is 3.79.
As to `CC(O)CNCCCC(=O)Cc1ccccc1` (configuration not stated), the logP was 2.53.
The figure for `O=C(CCCNCCO)c1cccs1` is 2.89; for `CCc1ccccc1C(=O)CCCNCCO` it is 3.85.
To `CN(CCO)CCCC(=O)c1cccs1` belongs 3.29; to `CC(O)CNCCCC(=O)c1cccs1` (configuration not stated), 2.73.
For `Cc1cc(C)c(C(=O)CCCNCCO)c(C)c1`, the logP turned out to be 3.16.
The figure for `Cc1ccccc1C(=O)CCCNCCO` is 3.61; for `Cc1ccsc1C(=O)CCCNCCO` it is 3; for `O=C(CCCNCCO)Cc1ccccc1` it is 3.03.
To `O=C(CCCNCCO)c1ccccc1` belongs 2.41.
The figure for `NCCNCCCC(=O)c1ccccc1` is 2.74; for `CN(CCO)CCCC(=O)c1ccccc1` it is 2.4.
Take `CC(O)CNCCCC(=O)c1ccccc1` (configuration not stated): the logP came to 3.28.
To `O=C(CCCNCCO)C1CCCCC1` belongs 3.96.
To `NCCNCCCC(=O)c1cccs1` belongs 2.58.
To `CN(CCO)CCCC(=O)Cc1ccccc1` belongs 3.07.
